Test results as given in patent publication US9949980B2, “Drugs to prevent HPV infection” (Wisconsin Alumni Research Foundation, priority 2008, dated 2018).
“Also recorded” adds a separate entry of the source. Like-named read-outs stand apart in the source and are kept apart here.

Key:
in vitro [1] = conditions: human
in vitro [2] = conditions: human; remark: listed apart in the source
HPV16 pseudovirus = test: Luciferase assay: HPV16 pseudovirus with renilla luciferase reporter (HPV16wpA-RL); conditions: renilla luciferase reporter behind HPV16 promoter
Procedure: (§1) The protocol for the secondary screen was identical to that of the primary screen with the exception that all volumes were scaled up by a factor of four. RL activity was measured using the Renilla Luciferase Assay System (Promega).

HPV16 pseudoviruses = test: microbe, parasite or virus in culture; type: cell-based; conditions: Human papillomavirus 16, HEK-293T, 48 h
Method in brief: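 Viability was read by CellTiter Glo luminescence on the same wells used for the SEAP infection read-out, after 48 hrs further incubation.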

in vitro [3] = conditions: human; remark: listed apart in the source
Procedure: as §1

HPV16 virus = test: Wild type HPV16 infection in 293T cells, early viral gene expression by real time PCR; type: cell-based; conditions: 5 to 10 μM (FIG. 3: 10 μM), 48 hours post infection
Procedure: FIG. 3. Inhibition of infection by HPV 16 virus. Shown is the relative efficiency of infection by HPV16 virus in 293T cells as scored by quantifying early viral transcription using real time PCR for E2 (dark grey bars), E5 (white bars) and E7 (light grey bars) containing mRNAs at 48 hours post-infection in the absence (DMSO—vehicle only, values set at 100%) or the presence of the indicated compound (10 μM concentration). Data points shown are the average of triplicate sample values. The dotted line indicates the normalized value for no drug (set as 100% infection value).
The 21 selected compounds were also tested for their ability to inhibit infection by bonafide HPV16 in 293T cells by measuring early viral gene expression by real time PCR at 48 hours post infection (FIG. 3) after treatment of the cell with 5 to 10 μM of each compound. Consistently with the data of reporter gene assays, HPV early gene expression was inhibited by Compounds 4, 13, 14, 18 and 20. Given the large differences in IC50 and CD50, and the reproducible capacity to inhibit infection by HPV16 pseudovirus and HPV16 virus in different cell types, Compounds 13 and 14 were selected for further analysis.
After 2 day infection, total RNA was isolated from infected cell lysate and treated with DNase I (Promega) as previously. (Pyeon, D. et al., Establishment of human papillomavirus infection requires cell cycle progression, PLos Pathog. 2009 February; 5(2):e1000318. Epub 2009 Feb. 27). Complementary DNA (cDNA) was synthesized from the normalized total RNA with the SuperScript cDNA synthesis kit (Invitrogen). All oligonucleotide primers (0.5 μM) for PCR are previously published (Pyeon D. et al., Production of infectious human papillomavirus independently of viral replication and epithelial cell differentiation, Proc. Nat'l Acad. Sci. USA, 2005 Jun. 28; 102(26):9311-6, Epub 2005 Jun. 15) or listed in Table 2.
Conventional PCR was performed with Taq DNA polymerase (Promega) and the following cycle: denaturation at 94° C. for 5 min, 42 cycles of 94° C. for 30 sec., 55° C. for 1 min., and 72° C. for 1 min., followed by extension at 72° C. for 7 min. Final products were analyzed by 1% agarose gel electrophoresis and ethidium bromide staining. Quantitative RT-PCR was performed using QuantiTect SYBR green PCR kit (Qiagen) with the following cycle: denaturation at 95° C. for 5 min. and 40 cycles of 95° C. for 30 sec., 55° C. for 30 sec., and 72° C. for 30 sec.

[4] = Primary HTS Viability % Average
[5] = read-out: Infectivity (SEAP Activity), 3 μM HTS standard concentration, 293T cells, 48 hrs
[6] = read-out: Infectivity vs. viability, 3 μM HTS standard concentration, ratio infectivity/viability
[7] = read-out: Primary HTS SEAP vs Viability, Table 2, first pair of columns (c2)
[8] = read-out: Primary HTS SEAP vs Viability, Table 2, second pair of columns (c4)

In the case of COc1ccc(C(O)(CNCc2ccccc2)c2ccc(Br)cc2)cc1 (stereo not shown) [Compound 9, 2-(benzylamino)-1-(4-bromophenyl)-1-(4-methoxyphenyl)ethanol], the viability at 52 h, 3 μM (in vitro [1]; [4]) is reported as 101%, the viability at 52 h, 3 μM (in vitro [1]; Viability (CelTiter Glow)) is reported as 105% and the viability at 52 h, 3.3 μM (in vitro [2]) is reported as 102%. For the same molecule, the “Luciferase assay RL % Average” value (HPV16 pseudovirus) was 71.67%, the activity at 3 µM (HPV16 pseudoviruses; [5]) was 29.9% and the activity at 3 µM (HPV16 pseudoviruses; [6]) was 28.4%. For the same molecule, the activity at 3 µM (HPV16 pseudoviruses; [7]) was 16.5%, the activity at 3 µM (HPV16 pseudoviruses; [8]) was 43.4% and the viability at 52 h, 3.3 μM (in vitro [3]) was 99%.

With COC(=O)C1=C(C)NC2=C(C(=O)c3ccccc32)C1c1cc2c(cc1Br)OCO2 (stereo not shown) [Compound 11, methyl 4-(6-bromo-1,3-benzodioxol-5-yl)-2-methyl-5-oxo-4,5-dihydro-1H-indeno[1,2-b]pyridine-3-carboxylate] the viability at 52 h, 3 μM (in vitro [1]; Viability (CelTiter Glow)) was 130%, the viability at 52 h, 3.3 μM (in vitro [2]) was 97.3% and the “Luciferase assay RL % Average” value (HPV16 pseudovirus) was 95.56%. The activity at 3 µM (HPV16 pseudoviruses; [5]) was 19.1%, the activity at 3 µM (HPV16 pseudoviruses; [6]) was 14.7% and the activity at 3 µM (HPV16 pseudoviruses; [7]) was 17.7%. The activity at 3 µM (HPV16 pseudoviruses; [8]) was 20.4% and the viability at 52 h, 3.3 μM (in vitro [3]) was 95.7%.

With CCOc1ccc(C(=O)Nc2ccc3oc(-c4ccccc4Br)nc3c2)cc1 [Compound 15, N-[2-(2-bromophenyl)-1,3-benzoxazol-5-yl]-4-ethoxybenzamide] the viability at 52 h, 3 μM (in vitro [1]; [4]) was 89.5%, the viability at 52 h, 3 μM (in vitro [1]; Viability (CelTiter Glow)) was 93.8% and the viability at 52 h, 3.3 μM (in vitro [2]) was 95.7%. The “Luciferase assay RL % Average” value (HPV16 pseudovirus) was 102.39%, the activity at 3 µM (HPV16 pseudoviruses; [5]) was 26.4% and the activity at 3 µM (HPV16 pseudoviruses; [6]) was 28.1%. For the same molecule, the activity at 3 µM (HPV16 pseudoviruses; [7]) was 11.1%, the activity at 3 µM (HPV16 pseudoviruses; [8]) was 41.6% and the viability at 52 h, 3.3 μM (in vitro [3]) was 97.7%.

With O=C1NC(=S)SC1=Cc1cc(Br)ccc1OCc1ccccc1Cl [Compound 18, 5-{5-bromo-2-[(2-chlorobenzyl)oxy]benzylidene}-2-thioxo-1,3-thiazolidin-4-one] the viability at 52 h, 3 μM (in vitro [1]; [4]) was 87.8%, the viability at 52 h, 3 μM (in vitro [1]; Viability (CelTiter Glow)) was 95.4% and the “Inhibition of HPV16 early gene expression (E2, E5, E7 mRNAs)” value (HPV16 virus) was “reproducible and significant inhibition; also recorded: inhibited”. The “Luciferase assay RL % Average” value (HPV16 pseudovirus) was 112.63%, the activity at 3 µM (HPV16 pseudoviruses; [5]) was 24.2% and the activity at 3 µM (HPV16 pseudoviruses; [6]) was 25.4%. For the same molecule, the activity at 3 µM (HPV16 pseudoviruses; [7]) was 27.2% and the activity at 3 µM (HPV16 pseudoviruses; [8]) was 21.2%.

For CC(O)c1cccc(NC(=O)c2cc3n(n2)C(C(F)(F)F)CC(c2ccc(F)cc2)N3)c1 (stereo not shown) [Compound 19, 5-(4-fluorophenyl)-N-[3-(1-hydroxyethyl)phenyl]-7-(trifluoromethyl)-4,5,6,7-tetrahydropyrazolo[1,5-a]pyrimidine-2-carboxamide], the viability at 52 h, 3 μM (in vitro [1]; [4]) was 116%, the viability at 52 h, 3 μM (in vitro [1]; Viability (CelTiter Glow)) was 107% and the “Luciferase assay RL % Average” value (HPV16 pseudovirus) was 88.74%. The activity at 3 µM (HPV16 pseudoviruses; [5]) was 40.8%, the activity at 3 µM (HPV16 pseudoviruses; [6]) was 37.9% and the activity at 3 µM (HPV16 pseudoviruses; [7]) was 50%. For the same molecule, the activity at 3 µM (HPV16 pseudoviruses; [8]) was 31.5%.

With FC(F)(F)c1cnc2c(c1)nc(S)n2-c1ccc(Cl)cc1 [Compound 20, 3-(4-chlorophenyl)-6-(trifluoromethyl)-3H-imidazo[4,5-b]pyridine-2-thiol] the viability at 52 h, 3 μM (in vitro [1]; [4]) was 95.8%, the viability at 52 h, 3 μM (in vitro [1]; Viability (CelTiter Glow)) was 99.1% and the “Inhibition of HPV16 early gene expression (E2, E5, E7 mRNAs)” value (HPV16 virus) was “reproducible and significant inhibition; also recorded: inhibited”. The “Luciferase assay RL % Average” value (HPV16 pseudovirus) was 109.22%, the activity at 3 µM (HPV16 pseudoviruses; [5]) was 21.4% and the activity at 3 µM (HPV16 pseudoviruses; [6]) was 21.6%. It also gave an activity at 3 µM (HPV16 pseudoviruses; [7]) of 20.9% and an activity at 3 µM (HPV16 pseudoviruses; [8]) of 21.9%.

For Cc1cccc(NC(=O)Nc2ccc(C(C)(C)C)cc2)n1 [Compound 21, 1-(4-tert-butylphenyl)-3-(6-methylpyridin-2-yl)urea], the viability at 52 h, 3 μM (in vitro [1]; [4]) was 92.8%, the viability at 52 h, 3 μM (in vitro [1]; Viability (CelTiter Glow)) was 92.8% and the “Luciferase assay RL % Average” value (HPV16 pseudovirus) was 109.22%. The activity at 3 µM (HPV16 pseudoviruses; [5]) was 43.8%, the activity at 3 µM (HPV16 pseudoviruses; [6]) was 47.2% and the activity at 3 µM (HPV16 pseudoviruses; [7]) was 34.2%. The activity at 3 µM (HPV16 pseudoviruses; [8]) was 53.5%.

In the case of Cc1ccc(C2Nc3ccccc3NC3=C2C(=O)CC(c2ccccc2)C3)s1 (stereo not shown) [Compound 22, 11-(5-methyl-2-thienyl)-3-phenyl-2,3,4,5,10,11-hexahydro-1H-dibenzo[b,e][1,4]diazepin-1-one], the viability at 52 h, 3 μM (in vitro [1]; Viability (CelTiter Glow)) is reported as 105%, the viability at 52 h, 3.3 μM (in vitro [2]) is reported as 93.7% and the “Luciferase assay RL % Average” value (HPV16 pseudovirus) is reported as 44.37%. For the same molecule, the activity at 3 µM (HPV16 pseudoviruses; [5]) was 44.1%, the activity at 3 µM (HPV16 pseudoviruses; [6]) was 41.9% and the activity at 3 µM (HPV16 pseudoviruses; [7]) was 45.2%. It also gave an activity at 3 µM (HPV16 pseudoviruses; [8]) of 43% and a viability at 52 h, 3.3 μM (in vitro [3]) of 97.3%.
